The results in this text go back to ChEMBL document CHEMBL3872220, “Amphiphilic xanthones as a potent chemical entity of anti-mycobacterial agents with membrane-targeting properties” (Eur J Med Chem, 2016).

Molecules are shown by their SMILES. In brackets after ≈: the same amount, converted by molar mass.

The test system of the first assay is Mycobacterium tuberculosis variant bovis. As to the kind of experiment: Antimycobacterial activity against Mycobacterium bovis BCG ATCC 35734 after 5 days by broth dilution assay. Type of assay: functional. The following applies: ATCC 35734, 120 h. A general note: Dilution methods test growth across graded concentrations, often in twofold steps.
As to `COc1c(OCC(O)CNCCNC(=N)N)cc2oc3cc(OCC(O)CNCCNC(=N)N)c(CC=C(C)C)c(O)c3c(=O)c2c1CC=C(C)C` (centres undefined), the MIC90 was > 30 µM. The same measure, in the same setting: for `CO[C@H]1/C=C/O[C@@]2(C)Oc3c(C)c(O)c4c(O)c(c(/C=N/N5CCN(C)CC5)c(O)c4c3C2=O)NC(=O)/C(C)=C\C=C\[C@H](C)[C@H](O)[C@@H](C)[C@@H](O)[C@@H](C)[C@H](OC(C)=O)[C@@H]1C` [RIFAMPIN] the value was 0.02 µM (≈ 0.0165 µg/mL); for `COC(=O)C(Cc1cnc[nH]1)NC(=O)COc1cc2oc3cc(OCC(=O)NC(Cc4cnc[nH]4)C(=O)OC)c(OC)c(CC=C(C)C)c3c(=O)c2c(O)c1CC=C(C)C` (centres undefined), > 30 µM. Compound `COc1c(OCCCCN2CCSCC2)cc2oc3cc(OCCCCN4CCSCC4)c(CC=C(C)C)c(O)c3c(=O)c2c1CC=C(C)C` displayed an MIC90 of 30 µM (≈ 21.8 µg/mL). This counts as double-digit micromolar. The same measure, in the same setting: under `CCN(CC)CC(O)COc1cc2oc3cc(OCC(O)CN(CC)CC)c(OC)c(CC=C(C)C)c3c(=O)c2c(O)c1CC=C(C)C` (centres undefined) stands 6.4 µM (≈ 4.28 µg/mL); under `COC(=O)C(CCCNC(=N)N)NC(=O)COc1cc2oc3cc(OCC(=O)NC(CCCNC(=N)N)C(=O)OC)c(OC)c(CC=C(C)C)c3c(=O)c2c(O)c1CC=C(C)C` (centres undefined), 12.8 µM (≈ 11.1 µg/mL); under `COc1c(OCC(O)CNCCNCCNCCN)cc2oc3cc(OCC(O)CNCCNCCNCCN)c(CC=C(C)C)c(O)c3c(=O)c2c1CC=C(C)C` (centres undefined), > 30 µM. Still for that read-out and setting: for `CCCN(CCC)CC(O)COc1cc2oc3cc(OCC(O)CN(CCC)CCC)c(OC)c(CC=C(C)C)c3c(=O)c2c(O)c1CC=C(C)C` (centres undefined) the value was 6.4 µM (≈ 4.64 µg/mL); for `NNC(=O)c1ccncc1` [ISONIAZID], 6.25 µM (≈ 0.857 µg/mL); for `COc1c(OCC(O)CNCCN)cc2oc3cc(OCC(O)CNCCN)c(CC=C(C)C)c(O)c3c(=O)c2c1CC=C(C)C` (centres undefined), > 30 µM. On the same count and under the same terms, for `CCN(CC)CCCCCCCOc1cc2oc3cc(OCCCCCCCN(CC)CC)c(OC)c(CC=C(C)C)c3c(=O)c2c(O)c1CC=C(C)C` the value was 6.4 µM (≈ 4.79 µg/mL); for `COc1c(OCC(O)CNC(CO)(CO)CO)cc2oc3cc(OCC(O)CNC(CO)(CO)CO)c(CC=C(C)C)c(O)c3c(=O)c2c1CC=C(C)C` (centres undefined), > 30 µM. In the case of `COc1c(OCC(=O)NC(CCCNC(=N)N)C(N)=O)cc2oc3cc(OCC(=O)NC(CCCNC(=N)N)C(N)=O)c(CC=C(C)C)c(O)c3c(=O)c2c1CC=C(C)C` (centres undefined), the MIC90 was > 30 µM.

`CCCCN(CC)CCCCOc1cc2oc3cc(OCCCCN(CC)CCCC)c(OC)c(CC=C(C)C)c3c(=O)c2c(O)c1CC=C(C)C` gave an MIC90 of 3.2 µM (≈ 2.31 µg/mL). Still for that read-out and setting: under `CN[C@@H]1[C@H](O[C@H]2[C@H](O[C@H]3[C@H](O)[C@@H](O)[C@H](N=C(N)N)[C@@H](O)[C@@H]3N=C(N)N)O[C@@H](C)[C@]2(O)C=O)O[C@@H](CO)[C@H](O)[C@H]1O` [STREPTOMYCIN] stands 0.39 µM (≈ 0.227 µg/mL); under `CCN(CC)CCCCOc1cc2oc3cc(OCCCCN(CC)CC)c(OC)c(CCC(C)C)c3c(=O)c2c(O)c1CCC(C)C`, 6.4 µM (≈ 4.28 µg/mL); under `CCN(CC)CCCCOc1ccc2c(=O)c3c(O)cc(OCCCCN(CC)CC)cc3oc2c1`, > 30 µM. The compound `CCN(CC)CCCCOc1cc2oc3cc(OCCCCN(CC)CC)c(OC)c(CC=C(C)C)c3c(=O)c2c(OCCCCN(CC)CC)c1CC=C(C)C` registered an MIC90 of 6.4 µM (≈ 5.07 µg/mL). Still for that read-out and setting: for `CCN(CC)CCCOc1cc2oc3cc(OCCCN(CC)CC)c(OC)c(CC=C(C)C)c3c(=O)c2c(O)c1CC=C(C)C` the value was 6.4 µM (≈ 4.08 µg/mL); for `CC[C@@H](CO)NCCN[C@@H](CC)CO` [ETHAMBUTOL], 6.25 µM (≈ 1.28 µg/mL). In turn, `COc1c(OCCCCN2CCOCC2)cc2oc3cc(OCCCCN4CCOCC4)c(CC=C(C)C)c(OCCCCN4CCOCC4)c3c(=O)c2c1CC=C(C)C` showed an MIC90 of 12.8 µM (≈ 10.7 µg/mL). As to `CCN(CC)CCOc1cc2oc3cc(OCCN(CC)CC)c(OC)c(CC=C(C)C)c3c(=O)c2c(O)c1CC=C(C)C`, the MIC90 stood at 6.4 µM (≈ 3.9 µg/mL).

The compound `COc1c(OCCCCN(C)C)cc2oc3cc(OCCCCN(C)C)c(CCC(C)C)c(O)c3c(=O)c2c1CCC(C)C` showed an MIC90 of 6.4 µM (≈ 3.92 µg/mL).

For another assay the test system is unchanged. Briefly: Bactericidal activity against Mycobacterium bovis BCG ATCC 35734 assessed as log reduction in bacterial colonies up to 8 times MIC measured after 24 hrs by time-kill assay. Type of assay: functional, Mycobacterium tuberculosis variant bovis BCG.
Conditions: not given
Take `NNC(=O)c1ccncc1` [ISONIAZID]: the Activity is recorded as 2.6.

For orientation: MIC90 means an inhibitory concentration at the 90% level, which refers to growth in some studies and to a panel of isolates in others. Low values mean higher susceptibility, high ones lower susceptibility.
